Data: publication PMC6776562, “Inhibition of Rac1-dependent forgetting alleviates memory deficits in animal models of Alzheimer’s disease” (Protein & Cell, 2019)
Entries after “also recorded” stand apart in the source; their conditions may differ.

How the values were obtained:
Rac1 = Rac1 (Mus musculus, UniProt P63001); assay: Rac1 activity (Rac1-GTP/total Rac1) in hippocampal tissue by PAK-PBD pull-down and Western blot after drug administration; assay type: in vivo, APP/PS1 mice; details: APP/PS1 mice (eight-month-old); oral CS7171 50 mg/kg, CS7170 50 mg/kg, JKF-034 40 mg/kg once per day
Protocol: We first assayed Rac1 activity in hippocampal tissues from AD patients and healthy age-matched, non-demented controls (Detailed information is provided in Table 1). The levels of the guanosine triphosphate (GTP)-bound active form of Rac1 were measured using the p21-binding domain (PBD) pull-down assay. The GTP-bound active form of Rac1 was pulled down through the interactive p21-activated kinase (PAK) fragment using PAK-PBD beads and measured using a Western blot assay (Fig. 1A), as described in previous studies (Shuai et al., [2010]; Liu et al., [2016]) from our laboratory and studies conducted by other research groups (Sander et al., [1998]; Barnes et al., [2008]). The total amount of Rac1 and actin were also evaluated using the Western blot analyses (See MATERIALS AND METHODS). […] Since there were no significant differences in total Rac1 levels between the experimental and control groups (See representative Western blot in all relevant figures), the ratio of Rac1-GTP to total Rac1 was taken as a measure of Rac1 activity. […] Consistent with this observation, Rac1 activity was also elevated in the hippocampus of APP/PS1 mice at different age (Fig. 1D). […] This increase was more pronounced in older flies (Fig. S1F).
(§1) Mice were treated with EHop-016 (10 mg/kg), CS7170 (50 mg/kg), CS7171 (50 mg/kg), and JKF-034 (40 mg/kg). These drugs were dissolved in saline (0.9% NaCl) containing 0.5% Tween-80 (Sigma P4780). Each mouse received 200 μL of the solution by intragastric administration once per day (administered at 9:00 am). The drug administration was started seven days before the beginning of the Morris water maze (MWM) task and was continued until the end of the assay. All control groups were fed with vehicle solution.
The hippocampal tissues from human subjects and mice were harvested and stored in a liquid nitrogen tank for biochemical assay. The tissues were homogenized in cold lysis buffer (Merck-Millipore, 20-168). The insoluble debris were removed after centrifugation at 13,000 rpm (for 10 min, at 4 °C). For GTP-bound Rac/Cdc42, lysates were incubated with GST-tagged PAK (p21-activated kinase)-PBD agarose beads (Cytoskeleton, PAK02) overnight at 4 °C. On the second day, the beads were washed three times with lysis buffer before subjecting them to SDS-PAGE (15%) and transferring them onto nitrocellulose membranes (Millipore, HATF00010). The membranes were incubated with primary antibodies (for Rac1: BD Transduction Laboratories, #610650, 1:2,000 dilution; for Cdc42, Santa Cruz Biotechnology, lot No. sc-8401, 1:500 dilution) overnight at 4 °C and with HRP-conjugated goat anti-mouse IgG (Cell Signaling Technology, #7076) for 1 h at room temperature. Intensities of the detected bands were analyzed using ImageJ software (National Institutes of Health). The total amount of Rac1 in the lysate was detected using a routine Western blot procedure. RhoA-GTP levels were measured by using the Rho-GTP monoclonal antibody (New East, lot No. 26904, Dilution: 1:1,000). Information regarding the other antibodies used is as follows: anti-RhoA (67B9), Cell Signaling, lot No. #2117, dilution: 1:1,000; anti-Actin, Clone C4, Millipore, lot No. #3018859, dilution: 1:2,000; anti-Amyloid 1-42 6E10, BioLegend, lot No. 803001, dilution: 1:1,000; anti-Phospho-PAK1 (Ser144)/PAK2 (Ser141), Cell Signaling, lot No. #2606, dilution: 1:1,000.

APP/PS1 mice = assay: Morris water maze (MWM) spatial learning in AD mice; assay type: in vivo, mouse; details: APP/PS1 mice (eight-month-old); oral CS7171 50 mg/kg, CS7170 50 mg/kg, JKF-034 40 mg/kg once per day
Protocol: as §1
The MWM test, a classic paradigm used to study spatial reference memory, was performed (Vorhees and Williams, [2006]). Briefly, a circular polypropylene water tank (120 cm in diameter) was filled with opaque water and milk (20 °C ± 1 °C) and a transparent platform (15 cm diameter) was submerged (2 cm below the water surface) in the center of one of the four virtually divided quadrants. Distal cues were fixed on the wall of the tank as spatial references. For the classic training paradigm (Figs. 2 and 6), mice were allowed to find the platform within 60 s and to remain on it for at least 5 s. For the modified training paradigm (Fig. 3A), mice were trained over 5 consecutive sessions with a 1-h intervals within one day. After training, mice were returned to their home cages and the memory of the location of the platform was tested at 6 h after training (Fig. 3C–D). A mouse behavior tracking software (ANY-maze software) was used to record data automatically.

hippocampal Rac1 activity (Rac1-GTP/total Rac1) (Rac1)	SMILES	MWM learning deficit / spatial memory (APP/PS1 mice)
inhibited Rac1 activity	O=S(=O)(c1ccccc1)N1CCN(Cc2ccccc2)CC1 [JKF-034]	effective; also recorded: rescued
inhibited hippocampal Rac1 activity	O=C1NN(c2ccc(Cl)c(Cl)c2)C(=O)C1=Cc1ccc(O)c(N(O)O)c1 [CS7171]	mitigated learning deficits; also recorded: rescued; also recorded: effective
